In brackets after ≈: the same amount, converted by molar mass. Like-named read-outs stand apart in the source and are kept apart here.
How the values were obtained:
[1] = tested on: HIV-1; experiment: microbe, parasite or virus in culture; type: cell-based; settings: Human immunodeficiency virus 1, SUP-T1, 48 h, read-out: HIV-1 IC50
[2] = tested on: Helicobacter pylori; experiment: Antibacterial assay, broth micro-dilution MIC, H. pylori; type: cell-based; settings: for MIC: Helicobacter pylori; for H. pylori MIC, range over strains: clinically isolated H. pylori, strains G27 and 159 together
Experimental: (§1) The antibacterial activities against H. pylori, S. aureus, B. subtilis, P. aeruginosa, and K. pneumonia were assayed by examining the MIC using the broth micro-dilution method as previously described.

[3] = tested on: Staphylococcus aureus; experiment: Antibacterial assay, broth micro-dilution MIC, S. aureus; type: cell-based; settings: read-out: MIC against Staphylococcus aureus
Experimental: as §1

[4] = tested on: Bacillus subtilis; experiment: Antibacterial assay, broth micro-dilution MIC, B. subtilis; type: cell-based; settings: read-out: MIC against Bacillus subtilis
Experimental: as §1

[5] = tested on: Pseudomonas aeruginosa; experiment: Antibacterial assay, broth micro-dilution MIC, P. aeruginosa; type: cell-based; settings: read-out: MIC against Pseudomonas aeruginosa
Experimental: as §1

[6] = tested on: Klebsiella pneumoniae; experiment: Antibacterial assay, broth micro-dilution MIC, K. pneumoniae; type: cell-based; settings: read-out: MIC against Klebsiella pneumoniae
Experimental: as §1

[7] = in vitro; settings: human
[8] = tested on: HCV; experiment: Anti-HCV assay; type: cell-based; settings: Hepatitis C virus
Experimental: Anti-HCV assays were carried out as described previously.

[9] = Cytotoxicity assay (MTT), uninfected Huh7.5 cells; type: cell-based; settings: human, read-out: HCV CC50
Experimental: Cytotoxicity of compounds were assayed for the uninfected 293T-Gluc, SupT1, and Huh7.5 cells. 293T-Gluc and Huh7.5 cells were cultured in Dulbecco’s modified Eagle’s medium supplemented with 10% fetal bovine serum (FBS, Invitrogen). SupT1 cells were cultured in RPMI1640 medium supplemented with 10% FBS. Various concentrations of test compounds (1 μL each well) were added to the 293T-Gluc and SupT1 cells (1 × 10^5 cells/well) in 96-well plates. After incubation at 37 °C for 48 h, 10 μL of CCK-8 reagent was added to the cells and they were incubated for another 4 h. Then, the absorbance of each well was recorded at 450 nm. A cytotoxicity assay for Huh7.5 cells was carried out using the MTT method as described previously.

[10] = in vitro; settings: human; remark: listed apart in the source
[11] = tested on: wild-type and multi-drug resistant HIV-1; parameters: method as in doi:10.1007/s11426-018-9283-3; settings: cited from earlier work
[12] = drug-resistant strain 159, read-out: H. pylori MIC, 159
[13] = drug-sensitive strain G27, read-out: H. pylori MIC, G27

`COc1cc(=O)oc(C=CC=CC=CC(C)=CC2(C)OC(C)C(C)(O)C2O)c1C` (single isomer, unassigned; (+)) [Compound 2, (+)-neocitreoviridin] gave an IC50 [1] greater than 10 µM, an MIC [2, 12] of 1 µg/mL (≈ 2.48 µM) and an MIC [2, 13] of 4 µg/mL (≈ 9.94 µM). The “H. pylori MIC, range over strains” value [2] was 1 to 16 µg/mL, the MIC [3] was greater than 128 µg/mL and the MIC [4] was greater than 128 µg/mL. The MIC [5] was greater than 128 µg/mL, the MIC [6] was greater than 128 µg/mL and the CC50 [7] was greater than 100 µM.
`CC[C@H](C)c1nc(OC)c(Cc2c[nH]c3ccccc23)nc1O` [Compound 1, (S)-6-((1H-indol-3-yl)methyl)-3-(sec-butyl)-5-methoxypyrazin-2-ol] gave an IC50 [1] of 4.6 ± 0.3 µM, an IC50 [8] of 7.7 ± 0.2 µM and a CC50 [9] of 116 ± 4.9 µM. For the same molecule, the MIC [2, 12] was 16 µg/mL (≈ 51.4 µM), the MIC [2, 13] was 4 µg/mL (≈ 12.8 µM) and the “H. pylori MIC, range over strains” value [2] was 1 to 16 µg/mL. The MIC [3] was greater than 128 µg/mL, the MIC [4] was greater than 128 µg/mL and the MIC [5] was greater than 128 µg/mL. It also gave an MIC [6] greater than 128 µg/mL.
Molecule `C=C(CC[C@@H](C)[C@H]1CC=C2C3=C(CC[C@@]21C)[C@@]1(C)CC[C@H](O)CC1CC3=O)C(C)C` (stereo partly drawn) [Compound 3, 3β-hydroxyergosta-8,14,24(28)-trien-7-one] has an IC50 [1] of 3.5 ± 0.8 µM.
`C=C(CC[C@@H](C)[C@H]1CC[C@H]2C3=C(CC[C@]12C)[C@@]1(C)CC[C@H](O)CC1CC3=O)C(C)C` (stereo partly drawn) [Compound 7, 3β-hydroxyergosta-8,24(28)-dien-7-one] showed an IC50 [1] greater than 10 µM and a CC50 [7] greater than 100 µM.
For `CC(C)[C@@H](C)/C=C/[C@@H](C)[C@H]1CC[C@H]2C3=C[C@@H](O)[C@@]4(O)C[C@@H](O)CC[C@]4(C)[C@H]3CC[C@]12C` [Compound 8, (22E,24R)-24-methyl-5α-cholesta-7,22-dien-3β,5,6β-triol], the IC50 [1] was 6.2 ± 0.2 µM.
`O=C1Nc2ccc(Cl)cc2[C@@](C#CC2CC2)(C(F)(F)F)O1` [Efavirenz, reference compound] showed a CC50 [7] greater than 100 µM.
Molecule `Cc1ncc([N+](=O)[O-])n1CCO` [Metronidazole, reference compound] has an MIC [2, 12] of 16 µg/mL (≈ 93.5 µM) and an MIC [2, 13] of 1 µg/mL (≈ 5.84 µM).
With `NC(=O)c1ncn([C@@H]2O[C@H](CO)[C@@H](O)[C@H]2O)n1` [Ribavirin, reference compound] the CC50 [10] was greater than 100 µM.
`CCC[C@H](NC(=O)[C@@H]1[C@H]2CCC[C@H]2CN1C(=O)[C@@H](NC(=O)[C@@H](NC(=O)c1cnccn1)C1CCCCC1)C(C)(C)C)C(=O)C(=O)NC1CC1` [VX-950, reference compound] showed an IC50 [8] of 0.05 ± 0.03 µM and a CC50 [9] of 25.8 ± 3.4 µM.
In the case of `CC(C)[C@H](C)CC[C@](C)(O)[C@H]1C(=O)C[C@H]2[C@@H]3C(=O)C=C4C[C@@H](O)CC[C@]4(C)[C@H]3CC[C@@]21C` [amotsterol D, (20S,24R)-3β,20-dihydroxyergostan-5(6)-en-7,16-dione], the “effectiveness against HIV-1” value [11] is listed as “low micromolar range”.
